Measured values reported in patent publication US9284330B2 (priority 2011, dated 2016).
Read-outs that look alike come from different tables or passages of the source.

Experiments:
[1] = test system: primary cortical neuron cells; details: for Relative neuron activity (average): 24 h incubation; for Toxicity to primary neurons (in words): concentrations tested 0.01, 0.1 and 1 μM, 24 h
L-type Ca2+ channel [2] = test: Blocking of L-type Ca2+ channel by patch clamp, calcium current in rat dorsal root ganglion cells; format: cell-based; details: whole cell patch clamp
[3] = test system: primary cortical neuron cells; test: Effect of the compounds on the morphology of neurons (microscopy); details: 0.01 to 1 μM, 24 h
L-type Ca2+ channel [4] = test: Blocking of L-type Ca2+ channel by high content screening analyzer, KCl-induced calcium ion influx in SH-SY5Y cells (Fluo-4-AM)
acetylcholinesterase = acetylcholinesterase (Electrophorus electricus (Electric eel) (Gymnotus electricus), UniProt O42275); test: biochemical
Sequence of acetylcholinesterase (O42275 whole entry, looked up): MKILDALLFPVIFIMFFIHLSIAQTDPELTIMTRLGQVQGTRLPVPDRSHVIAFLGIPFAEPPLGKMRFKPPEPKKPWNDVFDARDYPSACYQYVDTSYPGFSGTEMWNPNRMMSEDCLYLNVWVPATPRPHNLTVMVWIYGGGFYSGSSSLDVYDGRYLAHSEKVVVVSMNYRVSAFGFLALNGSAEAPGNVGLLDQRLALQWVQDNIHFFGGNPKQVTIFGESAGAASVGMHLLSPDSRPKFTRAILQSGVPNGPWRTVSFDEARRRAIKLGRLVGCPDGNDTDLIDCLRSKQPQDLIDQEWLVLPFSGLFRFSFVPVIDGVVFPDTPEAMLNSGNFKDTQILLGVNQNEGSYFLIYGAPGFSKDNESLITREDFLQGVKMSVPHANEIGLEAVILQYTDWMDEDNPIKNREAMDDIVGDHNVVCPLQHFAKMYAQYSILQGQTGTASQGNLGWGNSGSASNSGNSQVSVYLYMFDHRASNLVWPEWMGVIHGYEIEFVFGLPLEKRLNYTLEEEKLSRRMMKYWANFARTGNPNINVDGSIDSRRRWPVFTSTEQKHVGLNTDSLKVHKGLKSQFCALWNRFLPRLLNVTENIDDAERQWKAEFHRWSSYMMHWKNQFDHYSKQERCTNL

[5] = test system: tau protein phosphorylation; format: cell-based; details: Western blot, 24 h incubation

CCOC(=O)C1=C(C)Nc2nc3c(c(N)c2C1c1ccccc1Cl)CC(C)(C)CC3 (centres unmarked) [Compound S1, 5-amino-4-(2-chlorphenyl)-2,7,7-trimethyl-1,4,6,7,8,9-hexahydrobenzo[b][1,8]naphthyridine-3-carboxylic acid ethyl ester]
Relative neuron activity (average) ([1]; 0.01 μM): 110.6%
Relative neuron activity (average) ([1]; 0.1 μM): 113.9%
Relative neuron activity (average) ([1]; 1 μM): 97.9%
Toxicity to primary neurons (in words) [1]: no significant toxicity
Inhibition rate of L-type Ca2+ channel current (L-type Ca2+ channel [2]; 100 nmol/L compound): 38.14%
Inhibition rate of L-type Ca2+ channel current (L-type Ca2+ channel [2]; 1000 nmol/L compound): 61.76%
Effect on the morphology of neurons [3]: no effect on the morphology of neurons
Inhibition rate of KCl-induced calcium ion influx (L-type Ca2+ channel [4]; 10 μM compound): 29.29%
Inhibition rate of KCl-induced calcium ion influx (L-type Ca2+ channel [4]; 50 μM compound): 63.60%
IC50 (acetylcholinesterase): 768 nM
Intracellular tau protein phosphorylation of neurons [5]: reduced

CC1=C(C(=O)OC(C)C)C(c2cccc(F)c2)c2c(nc3c(c2N)CC(C)(C)CC3)N1 (centres unmarked) [Compound S3, 5-amino-4-(3-fluorophenyl)-2,7,7-trimethyl-1,4,6,7,8,9-hexahydrobenzo[b][1,8]napht hyridine-3-carboxylic acid isopropyl ester]
Relative neuron activity (average) ([1]; 0.01 μM): 107.7%
Relative neuron activity (average) ([1]; 0.1 μM): 102.4%
Relative neuron activity (average) ([1]; 1 μM): 98.8%
Toxicity to primary neurons (in words) [1]: no significant toxicity
Inhibition rate of KCl-induced calcium ion influx (L-type Ca2+ channel [4]; 10 μM compound): 81.33%
Inhibition rate of KCl-induced calcium ion influx (L-type Ca2+ channel [4]; 50 μM compound): 86.82%
IC50 (acetylcholinesterase): 1130 nM
Intracellular tau protein phosphorylation of neurons [5]: reduced

CCOC(=O)C1=C(C)Nc2nc3c(c(N)c2C1c1cccc(Cl)c1)CC(C)(C)CC3 (centres unmarked) [Compound S6, 5-amino-4-(3-chlorphenyl)-2,7,7-trimethyl-1,4,6,7,8,9-hexahydrobenzo[b][6,8]naphth yridine-3-carboxylic acid ethyl ester]
Relative neuron activity (average) ([1]; 0.01 μM): 107.1%
Relative neuron activity (average) ([1]; 0.1 μM): 105.3%
Relative neuron activity (average) ([1]; 1 μM): 99.0%
Toxicity to primary neurons (in words) [1]: no significant toxicity
Inhibition rate of KCl-induced calcium ion influx (L-type Ca2+ channel [4]; 10 μM compound): 11.30%
Inhibition rate of KCl-induced calcium ion influx (L-type Ca2+ channel [4]; 50 μM compound): 95.51%
IC50 (acetylcholinesterase): 893 nM
Intracellular tau protein phosphorylation of neurons [5]: reduced

CC1=C(C(=O)OC(C)C)C(c2ccccc2F)c2c(nc3c(c2N)CC(C)(C)CC3)N1 (centres unmarked) [Compound S8, 5-amino-4-(2-fluorophenyl)-2,7,7-trimethyl-1,4,6,7,8,9-hexahydrobenzo[b][1,8]napht hyridine-3-carboxylic acid isopropyl ester]
Relative neuron activity (average) ([1]; 0.01 μM): 114.7%
Relative neuron activity (average) ([1]; 0.1 μM): 101.7%
Relative neuron activity (average) ([1]; 1 μM): 97.7%
Toxicity to primary neurons (in words) [1]: no significant toxicity
Inhibition rate of KCl-induced calcium ion influx (L-type Ca2+ channel [4]; 10 μM compound): 61.63%
Inhibition rate of KCl-induced calcium ion influx (L-type Ca2+ channel [4]; 50 μM compound): 93.28%
IC50 (acetylcholinesterase): 757 nM
Intracellular tau protein phosphorylation of neurons [5]: reduced

COCCOC(=O)C1=C(C)Nc2nc3c(c(N)c2C1c1ccccc1Cl)CC(C)(C)CC3 (centres unmarked) [Compound S10, 5-amino-4-(2-chlorphenyl)-2,7,7-trimethyl-1,4,6,7,8,9-hexahydrobenzo[b][1,8]naphth yridine-3-carboxylic acid methoxylethyl ester]
Relative neuron activity (average) ([1]; 0.01 μM): 120.7%
Relative neuron activity (average) ([1]; 0.1 μM): 96.3%
Relative neuron activity (average) ([1]; 1 μM): 70.3%
Inhibition rate of KCl-induced calcium ion influx (L-type Ca2+ channel [4]; 10 μM compound): 49.97%
Inhibition rate of KCl-induced calcium ion influx (L-type Ca2+ channel [4]; 50 μM compound): 83.29%
IC50 (acetylcholinesterase): 971 nM

COC(=O)C1=C(C)Nc2nc3c(c(N)c2C1c1cccc([N+](=O)[O-])c1)CCCC3C (centres unmarked) [Compound S15, 5-amino-4-(3-nitrophenyl)-2,9-dimethyl-1,4,6,7,8,9-hexahydrobenzo[b][1,8]naphthyridine-3-carboxylic acid methyl ester]
Relative neuron activity (average) ([1]; 0.01 μM): 111.9%
Relative neuron activity (average) ([1]; 0.1 μM): 105.8%
Relative neuron activity (average) ([1]; 1 μM): 65.9%
Toxicity to primary neurons (in words) [1]: minor toxicity
IC50 (acetylcholinesterase): 729 nM
Intracellular tau protein phosphorylation of neurons [5]: reduced

CCOC(=O)C1=C(C)Nc2nc3c(c(N)c2C1c1cccc([N+](=O)[O-])c1)CC(F)(F)CC3 (centres unmarked) [Compound S19, 5-amino-7,7-difluoro-2-methyl-4-(3-nitrophenyl)-1,4,6,7,8,9-hexahydrobenzo[b][1,8]naphthyridine-3-carboxylic acid ethyl ester]
Inhibition rate of L-type Ca2+ channel current (L-type Ca2+ channel [2]; 100 nmol/L compound): 4.12%
Inhibition rate of L-type Ca2+ channel current (L-type Ca2+ channel [2]; 1000 nmol/L compound): 26.29%
IC50 (acetylcholinesterase): 333 nM

COC(=O)C1=C(C)Nc2nc3c(c(N)c2C1c1cccc(Cl)c1Cl)CC(C)CC3 (centres unmarked) [Compound S27, 5-amino-4-(2,3-dichlorophenyl)-2,7-dimethyl-1,4,6,7,8,9-hexahydrobenzo[b][1,8]nap hthyridine-3-carboxylic acid methyl ester]
Relative neuron activity (average) ([1]; 0.01 μM): 123.7%
Relative neuron activity (average) ([1]; 0.1 μM): 102.9%
Relative neuron activity (average) ([1]; 1 μM): 43.0%
Inhibition rate of L-type Ca2+ channel current (L-type Ca2+ channel [2]; 100 nmol/L compound): 39.68%
Inhibition rate of L-type Ca2+ channel current (L-type Ca2+ channel [2]; 1000 nmol/L compound): 65.54%
IC50 (acetylcholinesterase): 178 nM

CC1=C(C(=O)OCCN(C)C)C(c2ccccc2)c2c(nc3c(c2N)CC(F)(F)CC3)N1 (centres unmarked) [Compound S29, 5-amino-7,7-difluoro-2-methyl-4-phenyl-1,4,6,7,8,9-hexahydrobenzo[b][1,8]naphthyr idine-3-carboxylic acid-2-(dimethylamino) ethyl ester]
Inhibition rate of L-type Ca2+ channel current (L-type Ca2+ channel [2]; 100 nmol/L compound): 11.64%
Inhibition rate of L-type Ca2+ channel current (L-type Ca2+ channel [2]; 1000 nmol/L compound): 23.76%
Inhibition rate of KCl-induced calcium ion influx (L-type Ca2+ channel [4]; 10 μM compound): 17.93%
Inhibition rate of KCl-induced calcium ion influx (L-type Ca2+ channel [4]; 50 μM compound): 57.19%
IC50 (acetylcholinesterase): 45 nM

CC1=C(C(=O)OC(C)C)C(c2ccccc2Cl)c2c(nc3c(c2N)CC(C)(C)CC3)N1 (centres unmarked) [Compound S32, 5-amino-2,7,7-trimethyl-4-(2-chlorphenyl)-1,4,6,7,8,9-hexahydrobenzo[b][1,8]naphth yridine-3-carboxylic acid isopropyl ester]
Relative neuron activity (average) ([1]; 0.01 μM): 115.5%
Relative neuron activity (average) ([1]; 0.1 μM): 106.5%
Relative neuron activity (average) ([1]; 1 μM): 98.6%
Toxicity to primary neurons (in words) [1]: no significant toxicity
Inhibition rate of KCl-induced calcium ion influx (L-type Ca2+ channel [4]; 10 μM compound): 29.49%
Inhibition rate of KCl-induced calcium ion influx (L-type Ca2+ channel [4]; 50 μM compound): 91.10%
IC50 (acetylcholinesterase): 6920 nM
Intracellular tau protein phosphorylation of neurons [5]: reduced

CCOC(=O)C1=C(C)Nc2nc3c(c(N)c2C1c1cccc(F)c1)CC(C)(C)CC3 (centres unmarked) [Compound S34, 5-amino-2,7,7-trimethyl-4-(3-fluorophenyl)-1,4,6,7,8,9-hexahydrobenzo[b][1,8]napht hyridine-3-carboxylic acid ethyl ester]
Inhibition rate of KCl-induced calcium ion influx (L-type Ca2+ channel [4]; 10 μM compound): 39.53%
Inhibition rate of KCl-induced calcium ion influx (L-type Ca2+ channel [4]; 50 μM compound): 88.96%
IC50 (acetylcholinesterase): 1780 nM

COC(=O)C1=C(C)NC(C)=C(C(=O)OC)C1c1ccccc1[N+](=O)[O-] [Nifedipine, reference compound]
Inhibition rate of L-type Ca2+ channel current (L-type Ca2+ channel [2]; 100 nmol/L compound): 22.48%
Inhibition rate of L-type Ca2+ channel current (L-type Ca2+ channel [2]; 1000 nmol/L compound): 36.15%
